Assay results reported in PubChem BioAssay AID1918942 (Molecular Pharmacology Branch, DTP, NCI, 2023).

System: 743489-274-T-PDC complex spheroid viability
Assay: Anticancer human tumor 743489-274-T-PDC patient-derived renal cell carcinoma cell line growth inhibition
Settings: for IC50: curve of first compound; for viability, T/C: stronger effect = lower value
Procedure, shortened: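 Complex spheroids of tumor cells with HUVEC and human MSCs, exposed to iadademstat combined with other agents. Each agent tested in half-log steps from near clinical Cmax (else 10 microM top), DMSO ≤0.25%.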

[1] = second compound 0.1 µM, first compound 0.0316 µM
[2] = second compound 0.1 µM, first compound 0.1 µM
[3] = second compound 0.1 µM, first compound 0.316 µM
[4] = second compound 0.1 µM, first compound 1 µM
[5] = second compound 0.1 µM, first compound 3.16 µM
[6] = second compound 0.1 µM, first compound 10 µM
[7] = second compound 0.316 µM, first compound 0.0316 µM
[8] = second compound 0.316 µM, first compound 0.1 µM
[9] = second compound 0.316 µM, first compound 0.316 µM
[10] = second compound 0.316 µM, first compound 1 µM
[11] = second compound 0.316 µM, first compound 3.16 µM
[12] = second compound 0.316 µM, first compound 10 µM
[13] = second compound 1 µM, first compound 0.0316 µM
[14] = second compound 1 µM, first compound 0.1 µM
[15] = second compound 1 µM, first compound 0.316 µM
[16] = second compound 1 µM, first compound 1 µM
[17] = second compound 1 µM, first compound 3.16 µM
[18] = second compound 1 µM, first compound 10 µM
[19] = second compound 3.16 µM, first compound 0.0316 µM
[20] = second compound 3.16 µM, first compound 0.1 µM
[21] = second compound 3.16 µM, first compound 0.316 µM
[22] = second compound 3.16 µM, first compound 1 µM
[23] = second compound 3.16 µM, first compound 3.16 µM
[24] = second compound 3.16 µM, first compound 10 µM
[25] = second compound 10 µM, first compound 0.0316 µM
[26] = second compound 10 µM, first compound 0.1 µM
[27] = second compound 10 µM, first compound 0.316 µM
[28] = second compound 10 µM, first compound 1 µM
[29] = second compound 10 µM, first compound 3.16 µM
[30] = second compound 10 µM, first compound 10 µM
[31] = second compound 0.1 µM, first compound 0.00949 µM
[32] = second compound 0.1 µM, first compound 0.03 µM
[33] = second compound 0.1 µM, first compound 0.0949 µM
[34] = second compound 0.1 µM, first compound 0.3 µM
[35] = second compound 0.316 µM, first compound 0.00949 µM
[36] = second compound 0.316 µM, first compound 0.03 µM
[37] = second compound 0.316 µM, first compound 0.0949 µM
[38] = second compound 0.316 µM, first compound 0.3 µM
[39] = second compound 1 µM, first compound 0.00949 µM
[40] = second compound 1 µM, first compound 0.03 µM
[41] = second compound 1 µM, first compound 0.0949 µM
[42] = second compound 1 µM, first compound 0.3 µM
[43] = second compound 3.16 µM, first compound 0.00949 µM
[44] = second compound 3.16 µM, first compound 0.03 µM
[45] = second compound 3.16 µM, first compound 0.0949 µM
[46] = second compound 3.16 µM, first compound 0.3 µM
[47] = second compound 10 µM, first compound 0.00949 µM
[48] = second compound 10 µM, first compound 0.03 µM
[49] = second compound 10 µM, first compound 0.0949 µM
[50] = second compound 10 µM, first compound 0.3 µM
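Also: spheroids exposed to compounds for 7 days before readout.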
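For viability, T/C in this document: 100% = DMSO vehicle control wells.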

## CC1(C)CCC(CN2CCN(c3ccc(C(=O)NS(=O)(=O)c4ccc(NCC5CCOCC5)c([N+](=O)[O-])c4)c(Oc4cnc5[nH]ccc5c4)c3)CC2)=C(c2ccc(Cl)cc2)C1 + NC1CCC(NC2CC2c2ccccc2)CC1
Second compound 0.1 µM
  IC50: > 10 µM
Second compound 0.316 µM
  IC50: > 10 µM
Second compound 1 µM
  IC50: > 10 µM
Second compound 3.16 µM
  IC50: > 10 µM
Second compound 10 µM
  IC50: > 10 µM
[1]
  viability, T/C: 105%
[2]
  viability, T/C: 124%
[3]
  viability, T/C: 114%
[4]
  viability, T/C: 105%
[5]
  viability, T/C: 125%
[6]
  viability, T/C: 124%
[7]
  viability, T/C: 125%
[8]
  viability, T/C: 122%
[9]
  viability, T/C: 116%
[10]
  viability, T/C: 109%
[11]
  viability, T/C: 117%
[12]
  viability, T/C: 123%
[13]
  viability, T/C: 125%
[14]
  viability, T/C: 114%
[15]
  viability, T/C: 119%
[16]
  viability, T/C: 126%
[17]
  viability, T/C: 134%
[18]
  viability, T/C: 136%
[19]
  viability, T/C: 114%
[20]
  viability, T/C: 130%
[21]
  viability, T/C: 134%
[22]
  viability, T/C: 114%
[23]
  viability, T/C: 117%
[24]
  viability, T/C: 111%
[25]
  viability, T/C: 128%
[26]
  viability, T/C: 117%
[27]
  viability, T/C: 118%
[28]
  viability, T/C: 122%
[29]
  viability, T/C: 129%
[30]
  viability, T/C: 102%

## CC1COCCN1c1cc(C2(S(C)(=N)=O)CC2)nc(-c2ccnc3[nH]ccc23)n1 (stereo not given) + NC1CCC(NC2CC2c2ccccc2)CC1
Second compound 0.1 µM
  IC50: > 10 µM
Second compound 0.316 µM
  IC50: > 10 µM
Second compound 1 µM
  IC50: > 10 µM
Second compound 3.16 µM
  IC50: > 10 µM
Second compound 10 µM
  IC50: > 10 µM
[1]
  viability, T/C: 108%
[2]
  viability, T/C: 106%
[3]
  viability, T/C: 108%
[4]
  viability, T/C: 116%
[5]
  viability, T/C: 93.7%
[6]
  viability, T/C: 92.1%
[7]
  viability, T/C: 99.6%
[8]
  viability, T/C: 111%
[9]
  viability, T/C: 107%
[10]
  viability, T/C: 108%
[11]
  viability, T/C: 112%
[12]
  viability, T/C: 98.6%
[13]
  viability, T/C: 103%
[14]
  viability, T/C: 123%
[15]
  viability, T/C: 115%
[16]
  viability, T/C: 113%
[17]
  viability, T/C: 99.8%
[18]
  viability, T/C: 94.9%
[19]
  viability, T/C: 112%
[20]
  viability, T/C: 103%
[21]
  viability, T/C: 107%
[22]
  viability, T/C: 106%
[23]
  viability, T/C: 98.5%
[24]
  viability, T/C: 92.7%
[25]
  viability, T/C: 112%
[26]
  viability, T/C: 103%
[27]
  viability, T/C: 111%
[28]
  viability, T/C: 121%
[29]
  viability, T/C: 106%
[30]
  viability, T/C: 94.6%

## CCN(c1cc(-c2ccc(CN3CCOCC3)cc2)cc(C(=O)NCc2c(C)cc(C)[nH]c2=O)c1C)C1CCOCC1 + NC1CCC(NC2CC2c2ccccc2)CC1
Second compound 0.1 µM
  IC50: > 3 µM
Second compound 0.316 µM
  IC50: > 3 µM
Second compound 1 µM
  IC50: > 3 µM
Second compound 3.16 µM
  IC50: > 3 µM
Second compound 10 µM
  IC50: > 3 µM
[31]
  viability, T/C: 104%
[32]
  viability, T/C: 103%
[33]
  viability, T/C: 101%
[34]
  viability, T/C: 102%
Second compound 0.1 µM, first compound 0.949 µM
  viability, T/C: 107%
Second compound 0.1 µM, first compound 3 µM
  viability, T/C: 104%
[35]
  viability, T/C: 91.1%
[36]
  viability, T/C: 98.5%
[37]
  viability, T/C: 97.4%
[38]
  viability, T/C: 96.2%
Second compound 0.316 µM, first compound 0.949 µM
  viability, T/C: 104%
Second compound 0.316 µM, first compound 3 µM
  viability, T/C: 102%
[39]
  viability, T/C: 99.8%
[40]
  viability, T/C: 106%
[41]
  viability, T/C: 101%
[42]
  viability, T/C: 105%
Second compound 1 µM, first compound 0.949 µM
  viability, T/C: 104%
Second compound 1 µM, first compound 3 µM
  viability, T/C: 106%
[43]
  viability, T/C: 107%
[44]
  viability, T/C: 106%
[45]
  viability, T/C: 110%
[46]
  viability, T/C: 105%
Second compound 3.16 µM, first compound 0.949 µM
  viability, T/C: 113%
Second compound 3.16 µM, first compound 3 µM
  viability, T/C: 111%
[47]
  viability, T/C: 109%
[48]
  viability, T/C: 107%
[49]
  viability, T/C: 108%
[50]
  viability, T/C: 95.7%
Second compound 10 µM, first compound 0.949 µM
  viability, T/C: 100%
Second compound 10 µM, first compound 3 µM
  viability, T/C: 104%

## Cn1ncnc1C1c2n[nH]c(=O)c3cc(F)cc(c23)NC1c1ccc(F)cc1 (stereo not given) + NC1CCC(NC2CC2c2ccccc2)CC1
Second compound 0.1 µM
  IC50: > 0.1 µM
Second compound 0.316 µM
  IC50: > 0.1 µM
Second compound 1 µM
  IC50: > 0.1 µM
Second compound 3.16 µM
  IC50: > 0.1 µM
Second compound 10 µM
  IC50: > 0.1 µM
Second compound 0.1 µM, first compound 0.000316 µM
  viability, T/C: 121%
Second compound 0.1 µM, first compound 0.001 µM
  viability, T/C: 99.1%
Second compound 0.1 µM, first compound 0.00316 µM
  viability, T/C: 100%
Second compound 0.1 µM, first compound 0.01 µM
  viability, T/C: 103%
[1]
  viability, T/C: 101%
[2]
  viability, T/C: 86.2%
Second compound 0.316 µM, first compound 0.000316 µM
  viability, T/C: 105%
Second compound 0.316 µM, first compound 0.001 µM
  viability, T/C: 102%
Second compound 0.316 µM, first compound 0.00316 µM
  viability, T/C: 93.6%
Second compound 0.316 µM, first compound 0.01 µM
  viability, T/C: 115%
[7]
  viability, T/C: 92%
[8]
  viability, T/C: 103%
Second compound 1 µM, first compound 0.000316 µM
  viability, T/C: 104%
Second compound 1 µM, first compound 0.001 µM
  viability, T/C: 108%
Second compound 1 µM, first compound 0.00316 µM
  viability, T/C: 90.2%
Second compound 1 µM, first compound 0.01 µM
  viability, T/C: 81.7%
[13]
  viability, T/C: 90.2%
[14]
  viability, T/C: 84%
Second compound 3.16 µM, first compound 0.000316 µM
  viability, T/C: 101%
Second compound 3.16 µM, first compound 0.001 µM
  viability, T/C: 101%
Second compound 3.16 µM, first compound 0.00316 µM
  viability, T/C: 101%
Second compound 3.16 µM, first compound 0.01 µM
  viability, T/C: 103%
[19]
  viability, T/C: 101%
[20]
  viability, T/C: 94%
Second compound 10 µM, first compound 0.000316 µM
  viability, T/C: 111%
Second compound 10 µM, first compound 0.001 µM
  viability, T/C: 98%
Second compound 10 µM, first compound 0.00316 µM
  viability, T/C: 91.7%
Second compound 10 µM, first compound 0.01 µM
  viability, T/C: 103%
[25]
  viability, T/C: 90.4%
[26]
  viability, T/C: 97.7%

## Nc1ncn(C2CC(O)C(CO)S2)c(=O)n1 (stereo not given) + NC1CCC(NC2CC2c2ccccc2)CC1
Second compound 0.1 µM
  IC50: > 0.3 µM
Second compound 0.316 µM
  IC50: > 0.3 µM
Second compound 1 µM
  IC50: > 0.3 µM
Second compound 3.16 µM
  IC50: > 0.3 µM
Second compound 10 µM
  IC50: > 0.3 µM
Second compound 0.1 µM, first compound 0.000949 µM
  viability, T/C: 116%
Second compound 0.1 µM, first compound 0.003 µM
  viability, T/C: 95.5%
[31]
  viability, T/C: 104%
[32]
  viability, T/C: 91.1%
[33]
  viability, T/C: 89.6%
[34]
  viability, T/C: 80.5%
Second compound 0.316 µM, first compound 0.000949 µM
  viability, T/C: 106%
Second compound 0.316 µM, first compound 0.003 µM
  viability, T/C: 105%
[35]
  viability, T/C: 120%
[36]
  viability, T/C: 110%
[37]
  viability, T/C: 95.6%
[38]
  viability, T/C: 103%
Second compound 1 µM, first compound 0.000949 µM
  viability, T/C: 118%
Second compound 1 µM, first compound 0.003 µM
  viability, T/C: 112%
[39]
  viability, T/C: 107%
[40]
  viability, T/C: 97.6%
[41]
  viability, T/C: 87.6%
[42]
  viability, T/C: 87%
Second compound 3.16 µM, first compound 0.000949 µM
  viability, T/C: 112%
Second compound 3.16 µM, first compound 0.003 µM
  viability, T/C: 116%
[43]
  viability, T/C: 96.8%
[44]
  viability, T/C: 108%
[45]
  viability, T/C: 88.4%
[46]
  viability, T/C: 102%
Second compound 10 µM, first compound 0.000949 µM
  viability, T/C: 113%
Second compound 10 µM, first compound 0.003 µM
  viability, T/C: 125%
[47]
  viability, T/C: 101%
[48]
  viability, T/C: 104%
[49]
  viability, T/C: 93.4%
[50]
  viability, T/C: 98%
